From US11266626B2, “Reduction of ER-MAM-localized APP-C99 and methods of treating alzheimer's disease” (THE TRUSTEES OF COLUMBIA UNIVERSITY IN THE CITY OF NEW YORK, priority 2015, dated 2022)
“Also recorded” adds a separate entry of the source.

How the values were obtained:
[1] = test system: SH-SY5Y cells; experiment: Seahorse analysis of mitochondrial respiration (OCR); type: cell-based, human; conditions: 10 μM DAPT vs untreated
Method: (§1) Respirometry of cultured cells was performed using the XF24e Extracellular Flux Analyzer (Seahorse Bioscience). Oxygen consumption was measured in basal conditions (Seahorse media with 25 mM glucose and 2 mM pyruvate) and after the sequential addition of 1 μM oligomycin (Complex V inhibitor), 0.75 μM FCCP (uncoupler) and 1 μM rotenone/1 μM antimycin A (Complex I and Complex III inhibitors respectively).
(§2) Respirometry of cultured cells was performed using the XF24e Extracellular Flux Analyzer (Seahorse Bioscience). Oxygen consumption was measured in basal conditions (Seahorse media with 25 mM glucose and 2 mM pyruvate) and after the sequential addition of 1 μM oligomycin (complex V inhibitor), 0.75 μM FCCP (uncoupler), and 1 μM rotenone/1 μM antimycin A (complex I and complex III inhibitors, respectively). All results were averages of five or more biological replicates. Every biological replicate consisted of three technical replicates. For every technical replicate, we plated equal number of cells (25,000 cell/well when MEFs were used, and 50,000 cells/well when human primary fibroblasts were analyzed). The number of cells was also counted after every respirometry assay to correct for cell death. All oxygen consumption (OCR) data were normalized by the number of viable cells or by protein quantity when isolated mitochondria were used.

[2] = test system: HeLa cells; experiment: Staining of lipid droplets with LipidTox Green; type: cell-based, human; conditions: DAPT 10 μM alone or with BI 100 nM
Method: (§3) Staining of lipid droplets was performed using HCS LipidTox™ Deep Green neutral lipid stain (Invitrogen H34475) according to the manufacturer's instructions. Lipid droplet staining was quantified using ImageJ. The different values represent the product of the intensity and the area covered by the fluorescent signal above background in every cell examined.

[3] = test system: fibroblasts from AD patients; experiment: Staining of lipid droplets with LipidTox Green; type: cell-based, human; conditions: 100 nM BI
Method: as §3, with “Quantification of total cholesterol and cholesteryl esters was performed using the Cholesterol/Cholesteryl Ester Quantitation kit from Calbiochem (428901). Staining of lipid droplets Staining” for “Staining”
as §3

[4] = test system: PS-DKO MEFs; experiment: Uptake of Bodipy-labeled fluorescent cholesterol; type: cell-based, mouse
Method: To measure uptake of fluorescent cholesterol, cultured cells were incubated with 1 μM Bodipylabeled cholesterol (Avanti Lipids; 810255P) for 12 h. Alternatively, Bodipy-cholesterol was complexed with methyl-β-cyclodextrin at a 1:10 molar ratio of sterol:cyclodextrin and added to cultured cells to a final concentration of 25 μg/ml for 6-8 h. Cholesterol droplets were visualized by microscopy and fluorescence was quantified by ImageJ.

[5] = test system: PS-DKO cells; experiment: Lipidomic analyses of membranes; type: cell-based, mouse; conditions: for ceramide levels / sphingomyelin levels: PS-DKO cells, BI 100 nM or myriocin 5 μM
Method: (§4) Lipid extracts were prepared via chloroform-methanol extraction, spiked with appropriate internal standards, and analyzed using a 6490 Triple Quadrupole LC/MS system (Agilent Technologies, Santa Clara, Calif.) as described previously (6, 7). Glycerophospholipids and sphingolipids were separated with normal-phase HPLC using an Agilent Zorbax Rx-Sil column (inner diameter 2.1×100 mm) under the following conditions: mobile phase A (chloroform:methanol:1 M ammonium hydroxide, 89.9:10:0.1, v/v) and mobile phase B (chloroform:methanol:water:ammonium hydroxide, 55:39.9:5:0.1, v/v); 95% A for 2 min, linear gradient to 30% A over 18 min and held for 3 min, and linear gradient to 95% A over 2 min and held for 6 min. Quantification of lipid species was accomplished using multiple reaction monitoring (MRM) transitions that were developed in earlier studies (6) in conjunction with referencing of appropriate internal standards: ceramide d18:1/17:0 and sphingomyelin d18:1/12:0 (Avanti Polar Lipids, Alabaster, Ala.).
as §4, with “Lipids were extracted from equal amounts of material (30 μg protein/sample). Lipid extracts” for “Lipid extracts”, “described previously (Chan et al., 2012). Glycerophospholipids and” for “described previously (6, 7). Glycerophospholipids and”, “hydroxide, 89.9:10:0.1, v/v/v) and mobile” for “hydroxide, 89.9:10:0.1, v/v) and mobile”, “hydroxide, 55:39.9:5:0.1, v/v/v); 95% A” for “hydroxide, 55:39.9:5:0.1, v/v); 95% A”, “earlier studies (Chan et al., 2012) in conjunction” for “earlier studies (6) in conjunction”, “Alabaster, Ala.). Values are represented as mole fraction with respect to total lipid (% molarity)” for “Alabaster, Ala.).”
Lipids were extracted from equal amounts of material (30 μg protein/sample). Lipid extracts were prepared via chloroform-methanol extraction, spiked with appropriate internal standards, and analyzed using a 6490 Triple Quadrupole LC/MS system (Agilent Technologies, Santa Clara, Calif.) as described previously (Chan et al, 2012). Glycerophospholipids and sphingolipids were separated with normal-phase HPLC using an Agilent Zorbax Rx-Sil column (inner diameter 2.1×100 mm) under the following conditions: mobile phase A (chloroform:methanol:1 M ammonium hydroxide, 89.9:10:0.1, v/v/v) and mobile phase B (chloroform:methanol:water:ammonium hydroxide, 55:39.9:5:0.1, v/v/v/v); 95% A for 2 min, linear gradient to 30% A over 18 min and held for 3 min, and linear gradient to 95% A over 2 min and held for 6 min. Quantification of lipid species was accomplished using multiple reaction monitoring (MRM) transitions that were developed in earlier studies (Chan et al, 2012) in conjunction with referencing of appropriate internal standards: ceramide d18:1/17:0 and sphingomyelin d18:1/12:0 (Avanti Polar Lipids, Alabaster, Ala., USA). Values are represented as mole fraction with respect to total lipid (% molarity). For this, lipid mass (in moles) of any specific lipid is normalized by the total mass (in moles) of all the lipids measured (Chan et al, 2012). In addition, all of our results were further normalized by protein content.

[6] = test system: FAD fibroblasts; experiment: Seahorse analysis of mitochondrial respiration (OCR); type: cell-based, human; conditions: FAD patient fibroblasts; BI
Method: as §1, §2

C[C@H](NC(=O)Cc1cc(F)cc(F)c1)C(=O)N[C@H](C(=O)OC(C)(C)C)c1ccccc1 [DAPT]
mitochondrial respiration (OCR) [1]: significant decrease in respiration; also recorded: significant reduction in respiration
accumulation of lipid droplets (LDs) [2]: LDs also accumulated; also recorded: Lipid droplets also accumulated

C[C@@H](NC(=O)c1cc(C(=O)N[C@@H](Cc2ccccc2)[C@H](O)CNC2CC2)cc(N(C)S(C)(=O)=O)c1)c1ccccc1 [BI, β-secretase inhibitor IV]
number of lipid droplets (LDs) [3]: reduced the number of LDs
uptake of Bodipy-labeled fluorescent cholesterol [4]: reduced uptake
ceramide levels [5]: reversing the alterations in both sphingomyelin (FIG. 46E) and ceramide
sphingomyelin levels [5]: reversing the alterations in both sphingomyelin
ceramide levels ([5]; listed as BACE1 inhibitor): completely reversed the changes in SM and Cer levels
sphingomyelin levels ([5]; listed as BACE1 inhibitor): completely reversed the changes in SM and Cer levels
PtdSer content of membranes ([5]; PS-DKO membranes, BI): reduced the PtdSer content of PS-DKO membranes to control levels
mitochondrial respiration (OCR) [6]: reversed the defect in mitochondrial respiration; also recorded: rescued the respiration defects
